Like-named read-outs stand apart in the source and are kept apart here.
Key:
F508delCFTR = target: T1, F508delCFTR (Homo sapiens, UniProt P13569, DEL508-508); test: Cell Surface Expression-Horse Radish Peroxidase (CSE-HRP) assay in CFBE41o-F508delCFTR-HRP cells; type: cell-based; conditions: for EC50: CFBE41o-F508delCFTR-HRP cells, 18-24 hours at 33° C., luminescence; for Maximum % activity (without co-corrector) / Maximum % activity (with co-corrector): normalized to on-plate positive control corrector (2 μM)
T1 construct: expressed in transfected cells; host or cells: CFBE41o- human lung-derived epithelial cell line, doxycycline-inducible expression
T1 sequence (P13569 with tags, fused parts or gaps DEL508-508): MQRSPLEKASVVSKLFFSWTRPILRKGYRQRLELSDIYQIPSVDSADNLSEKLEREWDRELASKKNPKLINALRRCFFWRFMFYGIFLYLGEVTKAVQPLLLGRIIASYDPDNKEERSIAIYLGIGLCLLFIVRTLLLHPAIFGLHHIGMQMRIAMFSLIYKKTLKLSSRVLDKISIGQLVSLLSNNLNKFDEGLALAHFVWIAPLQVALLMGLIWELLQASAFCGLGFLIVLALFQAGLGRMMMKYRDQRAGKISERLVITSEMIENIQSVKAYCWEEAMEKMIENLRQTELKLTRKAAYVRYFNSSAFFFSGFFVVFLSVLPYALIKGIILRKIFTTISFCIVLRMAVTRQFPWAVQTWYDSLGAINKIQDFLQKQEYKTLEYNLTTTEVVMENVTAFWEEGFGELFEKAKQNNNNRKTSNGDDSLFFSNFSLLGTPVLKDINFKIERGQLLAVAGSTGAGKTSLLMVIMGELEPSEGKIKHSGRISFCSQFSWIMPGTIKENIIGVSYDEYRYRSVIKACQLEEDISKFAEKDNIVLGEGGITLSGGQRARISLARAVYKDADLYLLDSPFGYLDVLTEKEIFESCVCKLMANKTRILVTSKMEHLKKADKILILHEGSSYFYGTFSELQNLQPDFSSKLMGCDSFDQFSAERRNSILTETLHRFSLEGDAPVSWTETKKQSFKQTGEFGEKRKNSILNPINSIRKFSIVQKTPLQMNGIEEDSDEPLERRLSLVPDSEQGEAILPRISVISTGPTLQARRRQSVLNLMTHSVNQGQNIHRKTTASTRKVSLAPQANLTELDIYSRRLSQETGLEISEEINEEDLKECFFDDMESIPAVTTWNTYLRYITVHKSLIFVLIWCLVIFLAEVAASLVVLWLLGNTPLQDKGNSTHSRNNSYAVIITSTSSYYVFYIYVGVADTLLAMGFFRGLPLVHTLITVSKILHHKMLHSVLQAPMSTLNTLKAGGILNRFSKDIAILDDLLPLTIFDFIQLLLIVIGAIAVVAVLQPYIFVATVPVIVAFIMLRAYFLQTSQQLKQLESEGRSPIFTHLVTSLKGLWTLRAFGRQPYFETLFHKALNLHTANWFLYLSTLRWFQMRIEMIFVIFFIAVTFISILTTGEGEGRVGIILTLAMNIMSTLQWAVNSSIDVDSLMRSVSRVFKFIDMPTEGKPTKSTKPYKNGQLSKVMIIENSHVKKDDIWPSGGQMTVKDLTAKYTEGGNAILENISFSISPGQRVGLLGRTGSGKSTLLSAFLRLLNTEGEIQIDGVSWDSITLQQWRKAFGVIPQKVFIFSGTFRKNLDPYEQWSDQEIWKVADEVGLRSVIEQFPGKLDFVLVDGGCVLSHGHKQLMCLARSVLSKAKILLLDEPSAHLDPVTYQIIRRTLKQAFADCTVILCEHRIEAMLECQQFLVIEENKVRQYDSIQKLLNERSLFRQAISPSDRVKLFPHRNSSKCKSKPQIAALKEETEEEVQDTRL
Experimental: A cellular assay for measuring the F508delCFTR cell surface expression after correction with test compounds either without or with a co-corrector (2 μM of 3-[(2R,4R)-4-({[1-(2,2-difluoro-1,3-benzodioxol-5-yl)cyclopropyl]carbonyl}amino)-7-methoxy-3,4-dihydro-2H-chromen-2-yl]benzoic acid), was developed in human lung derived epithelial cell line (CFBE4lo-) (Veit G et al, (2012) Mol Biol Cell. 23(21): 4188-4202). The development was achieved by expressing the F508delCFTR mutation along with a horseradish peroxidase (HRP) in the fourth exofacial loop, and then measuring the HRP activity using luminescence readout from these cells, CFBE4lo-F508delCFTR-HRP, that were incubated overnight with the test corrector compounds, either without or with the co-corrector. For this primary assay, the CFBE4lo-F508delCFTR-HRP cells were plated in 384-well plates (Greiner Bio-one; Cat 781080) at 4,000 cells/well along with 0.5 μg/mL doxycycline to induce the F508delCFTR-RP expression and further incubated at 37° C., 5% CO2 for 68-72 hours. The test compounds were then added either without or with a co-corrector at the required concentrations and further incubated for 18-24 hours at 33° C. The highest concentration tested was 20 μM or 30 μM (GI-1 to GIII-36) with an 8-point concentration response curve using a 3-fold dilution in both the test compound without or with the co-corrector. Three replicate plates were run to determine one EC50. All plates contained negative controls (dimethyl sulfoxide, DMSO) and positive control (2 μM or 3 μM (GI-1 to GIII-36) of 3-[(2R,4R)-4-({[1-(2,2-difluoro-1,3-benzodioxol-5-yl)cyclopropyl]carbonyl}amino)-7-methoxy-3,4-dihydro-2H-chromen-2-yl]benzoic acid) as well as on-plate concentration response of the positive control. Post incubation, the plates were washed 5× times with Dulbecco's phosphate buffered saline (DPBS), followed by the addition of the HRP substrate, luminol (50 μL), and measuring the HRP activity using luminescence readout on EnVision® Multilabel Plate Reader (Perkin Elmer; product number 2104-0010). The raw counts from the experiment were analyzed using Accelrys® Assay Explorer v3.3.
Z′ greater than 0.5 was used as passing quality control criteria for the plates. The Z′ is defined as:
1−[3*SDPositive Control+3*SDNegative Control/Absolute (MeanPositive Control−MeanNegative Control)]
The % activity measured at each of the 8 test concentrations of the test compound added either without or with a co-corrector (2 μM or 3 μM (GI-1 to GIII-36) of 3-[(2R,4R)-4-({[1-(2,2-difluoro-1,3-benzodioxol-5-yl)cyclopropyl]carbonyl}amino)-7-methoxy-3,4-dihydro-2H-chromen-2-yl]benzoic acid) was normalized to the on-plate positive control using the following formulae:
% activity (Test compound without co-corrector)=[(test compound without co-corrector response−DMSO response)/(positive control response−DMSO response)]*100
% activity (Test compound with co-corrector)=[(test compound with co-corrector response−DMSO response)/(positive control response−DMSO response)]*100
The maximum % activity achieved for the test compound either without or with a co-corrector at any tested concentration is presented in Table 3 along with the respective EC50's calculated using the following general sigmoidal curve with variable Hill slope equation (described as Model 42 in the Accelrys® Assay Explorer v3.3 software):
General sigmoidal curve with concentration, response, top, bottom, EC50 and Hill slope. This model describes a sigmoidal curve with an adjustable baseline, a. The equation can be used to fit curves where response is either increasing or decreasing with respect to the independent variable, “x”.

F508del/F508del CFTR = target: T2, F508del/F508del CFTR (Homo sapiens, UniProt P13569, DEL508-508); test: Trans-Epithelial Current Clamp (TECC) assay using primary human bronchial epithelial cells; type: cell-based; conditions: for Emax (% Dual): maximum percent activity relative to positive control (co-corrector 0.15 μM + potentiator 0.45 μM = 100%), primary hBE cells F508del/F508del; for EC50: primary hBE cells homozygous F508del/F508del, test C2 corrector with co-corrector and potentiator, 18-24 hours at 37° C., equivalent CFTR current (IEQ)/AUC
T2 construct: cells isolated from CF patients with the homozygous mutation; endogenous in cells; host or cells: primary human bronchial epithelial (hBE) cells from CF patients homozygous for F508del
T2 sequence (P13569 with tags, fused parts or gaps DEL508-508): as above
Source text: A cell-based assay was developed using the primary human bronchial epithelial cells (hBE cells) with F508del/F508del CFTR and other mutations.
Primary human bronchial epithelial (hBE) cells from CFTR patients with homozygous F508del/F508del mutation were expanded from 1×10^6 to 250×10^6 cells (Neuberger, T et al., 2011, Methods Mol Biol 741:39-54). For this purpose, cells isolated from CF patients with the homozygous mutation, procured from the CF center tissue procurement and cell culture core at the Marsico Lung Institute at UNC (Randell), the Cystic Fibrosis translational research center at McGill University (University), and Rosalind Franklin University Medical School (RFUMS) were seeded onto 24 well Corning (Cat #3378) filter plates that were coated with 3T3 conditioned media and grown at an air-liquid interface for 35 days using an Ultroser® G supplemented differentiation media. All the primary human bronchial epithelial cells were collected in accordance with institutional review board approval protocols. Apical surface mucus was removed 72 hours before the experiment by incubating the apical surface of the cells for 30 minutes with 3 mM dithiothreitol (DTT) prepared in Dulbecco's phosphate buffered saline (DPBS) with Ca^2+ and Mg^2+. This was followed with aspiration of the mucus from the apical surface along with DPBS. The apical surface was re-washed with phosphate buffered saline (PBS) incubated for 30 minutes followed with aspiration. These hBE cells were then incubated with the desired concentrations of the test C2 corrector compounds along with co-corrector, 4-[(2R,4R)-4-({[1-(2,2-difluoro-1,3-benzodioxol-5-yl)cyclopropyl]carbonyl}amino)-7-(difluoromethoxy)-3,4-dihydro-2H-chromen-2-yl]benzoic acid and potentiator, (5-{3-amino-5-[4-(trifluoromethoxy)benzene-1-sulfonyl]pyridin-2-yl}-1,3,4-oxadiazol-2-yl)methanol, for 18-24 hours at 37° C., 5% CO2. The desired concentrations of the correctors and potentiator compounds were prepared from the 10 mM stocks in differentiation media and were always applied on the basolateral side of the epithelial cells. We also used an assay format where a fixed concentration of potentiator was added chronically along with the corrector compounds. This chronic treatment with the potentiator helped eliminate any interaction that might happen with CFTR modulators (correctors and potentiators) and thereby determined the true efficacy of the modulator combinations reflective of clinical relevance.
The assay uses a Transepithelial Current Clamp (TECC) (Vu, C B et al., 2017; J Med Chem 60:458-473) instrument that can measure the functionality of the mutated channel by measuring the equivalent CFTR current (IEQ) generated by the polarized primary epithelial cells. We used a TECC-24 with a 24-channel electrode manifold allowing for the simultaneous measurement of the transepithelial voltage, VT, and transepithelial resistance, RT, under current clamp conditions, from 24 filters using a 24 well Costar filter plate. The design of the filters in the 24 well filter plates was exactly the same as the design of an individual Transwell filter used in the classical Ussing Chamber with a surface area of 0.33 cm^2. Each measured VT values were corrected for the electrode offset potential measured using buffer alone in a separate plate, and each measured RT values were then corrected for the combined solution series and empty filter resistances. The corrected VT and RT values were then used to calculate the equivalent current, IEQ using Ohm's law (IEQ=VT/RT). The area under the curve (AUC) for the time period between the forskolin peak IEQ response and at the time of bumetanide addition was also calculated using a one-third trapezoid method, in addition to calculating the IEQ. The assay was run in a 24-well format and all 24-wells were measured at the same time point giving a higher throughput for this assay. […]

[1] = with co-corrector (2 μM), read-out: EC50 (with co-corrector)
[2] = without co-corrector, read-out: EC50 (without co-corrector)

Structure (SMILES)	EC50 (F508delCFTR; [1])	EC50 (F508delCFTR; [2])	Emax (% Dual) (F508del/F508del CFTR)	EC50 (F508del/F508del CFTR)	Maximum % activity (without co-corrector) (F508delCFTR; without co-corrector)	Maximum % activity (with co-corrector) (F508delCFTR; with co-corrector (2 μM))
COc1cccc([C@H]2C[C@@]2(C(=O)NS(=O)(=O)c2cccc3nc(C)ccc23)c2cc(C)ccc2OC)n1 [Example 43, (1s,2s)-1-(2-methoxy-5-methylphenyl)-2-(6-methoxypyridin-2-yl)-N-(2-methylquinoline-5-sulfonyl)cyclopropane-1-carboxamide]	806 nM	2420 nM	272 % Dual	2.9 nM	–	–
COc1cccc([C@@H]2C[C@]2(C(=O)NS(=O)(=O)c2cccc3nc(C)ccc23)c2cc(C)ccc2OC)c1 (single isomer, unassigned) [Example 27]	429 nM	405 nM	275 % Dual	15.7 nM	465%	–
COc1ccc(C)cc1[C@]1(C(=O)NS(=O)(=O)c2cccc3nc(C)ccc23)C[C@@H]1c1ccccc1C(F)(F)F (single isomer, unassigned) [Example 30]	260 nM	263 nM	313 % Dual	46.6 nM	589%	–
COc1cnc([C@@H]2C[C@]2(C(=O)NS(=O)(=O)c2cccc3nc(C)ccc23)c2cc(C)ccc2OC)cn1 (single isomer, unassigned) [Example 47]	1280 nM	2210 nM	247 % Dual	85.2 nM	322%	775%
COc1ccc(C)cc1[C@@]1(C(=O)NS(=O)(=O)c2cccc3nc(C)ccc23)C[C@H]1c1ccccn1 [Example 13, (1R,2R)-1-(2-methoxy-5-methylphenyl)-N-(2-methylquinoline-5-sulfonyl)-2-(pyridin-2-yl)cyclopropane-1-carboxamide]	1490 nM	2480 nM	232 % Dual	57.7 nM	–	–
COc1ccc(C)cc1[C@]1(C(=O)NS(=O)(=O)c2cccc3nc(C)ccc23)C[C@@H]1c1ccc(C)cc1 (single isomer, unassigned) [Example 7]	926 nM	1450 nM	487 % Dual	0.8 nM	–	–

The next lines start with the values.

EC50 (F508delCFTR; [1])	EC50 (F508delCFTR; [2])	Emax (% Dual) (F508del/F508del CFTR)	EC50 (F508del/F508del CFTR)	Maximum % activity (without co-corrector) (F508delCFTR; without co-corrector)	Maximum % activity (with co-corrector) (F508delCFTR; with co-corrector (2 μM))	Structure (SMILES)
2780 nM	4490 nM	207 % Dual	114 nM	–	–	COc1ccc(C)cc1[C@]1(C(=O)NS(=O)(=O)c2cccc3nc(C)ccc23)C[C@@H]1c1cnc(C)c(F)c1 (single isomer, unassigned) [Example 100]
1260 nM	2240 nM	322 % Dual	142 nM	447%	935%	COc1ccc(C)cc1[C@]1(C(=O)NS(=O)(=O)c2cccc3nc(C)ccc23)C[C@@H]1c1cnc(C)cn1 (racemic) [Example 89, rac-(1r,2r)-1-(2-methoxy-5-methylphenyl)-2-(5-methylpyrazin-2-yl)-N-(2-methylquinoline-5-sulfonyl)cyclopropane-1-carboxamide]
2140 nM	3320 nM	283 % Dual	26.6 nM	608%	–	COc1cncc([C@H]2C[C@@]2(C(=O)NS(=O)(=O)c2cccc3nc(C)ccc23)c2cc(C)ccc2OC)c1 (single isomer, unassigned) [Example 52]
2760 nM	3980 nM	126 % Dual	> 1000 nM	180%	509%	COc1nccc([C@@H]2C[C@]2(C(=O)NS(=O)(=O)c2cccc3nc(C)ccc23)c2cc(C)ccc2OC)n1 (single isomer, unassigned) [Example 99]
1440 nM	2210 nM	176 % Dual	24.1 nM	–	–	COc1ccc(C)cc1[C@]1(C(=O)NS(=O)(=O)c2cccc3nc(C)ccc23)C[C@@H]1c1ccc(C)nc1OC (single isomer, unassigned) [Example 86]
386 nM	890 nM	290 % Dual	8.5 nM	370%	917%	CCOc1cccc([C@@H]2C[C@]2(C(=O)NS(=O)(=O)c2cccc3nc(C)ccc23)c2cc(C)ccc2OC)n1 [Example 56, (1R,2R)-2-(6-ethoxypyridin-2-yl)-1-(2-methoxy-5-methylphenyl)-N-(2-methylquinoline-5-sulfonyl)cyclopropane-1-carboxamide]

Reference: patent publication US20240043386A1, “Modulators of the Cystic Fibrosis Transmembrane Conductance Regulator Protein and Methods of Use” (AbbVie Global Enterprises Ltd., priority 2021, published 2024)
